{"source": "paper PMC12114195", "about": "“Synthesis, Experimental and Computational Evaluation of SERAAK1 as a 5-HT2A Receptor Ligand” (Molecules, 2025)", "key": {"[1]": {"assay": "PAMPA passive permeability", "type": "in vitro ADME", "conditions": "for Papp at 5 h, 100 μM: PBS pH 7.4, 5 h, read-out: Pe ± SD", "procedure": "The PAMPA assay was utilized to evaluate the ability of SERAAK1 to passively diffuse through a lipid-infused artificial membrane. The results, gathered in Table 3, were expressed as permeability coefficient Pe, calculated according to the formulas described elsewhere.\nThe pre-coated PAMPA Plate System Gentest from Corning (Tewksbury, MA, USA) was used in experiments using the instructions of the manufacturer. SERAAK1 and reference compounds were diluted in the PBS buffer (pH 7.4) to the final concentration of 100 μM and placed on the 96-well donor microplate. The exact quantity of molecules that successfully penetrated from donor to acceptor wells through the phospholipid membrane was estimated after 5 h of incubation using UPLC-MS spectrometry (Waters ACQUITY™ TQD system with the TQ Detector, Waters, Milford, CT, USA). The final permeability coefficient (Pe, cm/s) calculation was performed using the formula provided by the vendor of the PAMPA Plate System."}, "CYP3A4": {"target": "T1, CYP3A4 (Homo sapiens, UniProt P08684)", "T1 construct": "purchased Promega", "T1 sequence (P08684 whole entry)": "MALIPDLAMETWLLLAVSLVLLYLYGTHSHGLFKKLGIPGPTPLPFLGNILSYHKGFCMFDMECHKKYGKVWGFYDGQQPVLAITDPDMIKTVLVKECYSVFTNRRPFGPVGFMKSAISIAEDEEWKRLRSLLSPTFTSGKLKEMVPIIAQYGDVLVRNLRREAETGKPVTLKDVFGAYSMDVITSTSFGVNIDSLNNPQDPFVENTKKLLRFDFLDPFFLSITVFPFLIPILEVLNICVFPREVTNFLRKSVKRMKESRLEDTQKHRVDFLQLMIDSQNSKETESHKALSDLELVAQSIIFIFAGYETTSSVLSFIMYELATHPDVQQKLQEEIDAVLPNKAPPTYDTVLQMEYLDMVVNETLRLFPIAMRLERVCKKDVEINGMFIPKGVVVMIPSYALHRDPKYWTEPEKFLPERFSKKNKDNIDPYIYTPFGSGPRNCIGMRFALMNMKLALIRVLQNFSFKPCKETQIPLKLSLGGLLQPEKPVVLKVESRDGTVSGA", "assay": "CYP3A4 P450 Glo luminescent assay", "type": "in vitro ADME", "procedure": "Briefly, the effect of SERAAK1 on CYP3A was determined using a luminescent luciferase-based assay. A 10 µM concentration of the compound was tested in two experiments, each with three replicates.\n(§1) Luminescence-based CYP3A4 P450 Glo and CYP2D6 P450 Glo kits (Promega, Madison, WI, USA) were used to assess the impact of SERAAK1 on the activity of two distinct cytochrome P450 isoforms. These assays were performed according to the protocol of the manufacturer and in alignment with the previously described methods. Each assay was performed twice in triplicate. Luminescence signals were measured using a Spark microplate reader (Tecan, Männedorf, Zürich, Switzerland)."}, "CYP2D6": {"target": "CYP2D6 (Homo sapiens, UniProt P10635)", "sequence (P10635 whole entry)": "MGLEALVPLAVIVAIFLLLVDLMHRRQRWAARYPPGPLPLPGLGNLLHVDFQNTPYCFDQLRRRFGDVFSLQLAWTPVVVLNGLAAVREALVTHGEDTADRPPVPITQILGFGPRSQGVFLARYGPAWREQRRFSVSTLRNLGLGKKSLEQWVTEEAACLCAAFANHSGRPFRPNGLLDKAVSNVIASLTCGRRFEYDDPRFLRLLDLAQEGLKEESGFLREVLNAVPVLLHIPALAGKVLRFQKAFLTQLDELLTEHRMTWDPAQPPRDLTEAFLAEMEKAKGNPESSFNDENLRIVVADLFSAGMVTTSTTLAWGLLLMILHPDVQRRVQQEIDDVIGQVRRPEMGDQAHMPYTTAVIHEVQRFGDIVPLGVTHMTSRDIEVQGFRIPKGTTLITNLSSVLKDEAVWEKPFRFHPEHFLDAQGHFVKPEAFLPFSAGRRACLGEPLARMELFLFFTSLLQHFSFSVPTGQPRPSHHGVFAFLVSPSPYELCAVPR", "assay": "in vitro", "conditions": "for inhibition at 10 µM: human", "procedure": "as §1"}, "HepG2 cells": {"system": "HepG2 cells", "assay": "MTS cytotoxicity assay, HepG2", "type": "cell-based, human", "conditions": "72 h", "procedure": "(§2) The cytotoxic properties of SERAAK1 were tested in two human cell lines, selected based on their relevance to the study objectives—the HepG2 and SH-SY5Y. Figure 7 and Figure 8 depict the results obtained in the cytotoxicity assays performed using the MTS.\n(§3) The cytotoxic effect of SERAAK1 was evaluated using the colorimetric MTS assay. The study was conducted on HepG2 and SH-SY5Y cell lines, following the same protocol. Cell lines were obtained from the American Type Culture Collection (Manassas, VA, USA) and maintained under standard conditions (5% CO2, 37 °C) in DMEM/F12 medium (#31330-038, ThermoFisher Scientific, Waltham, MA, USA), supplemented with 10% FBS (#A5256801, ThermoFisher Scientific) and Penicillin-Streptomycin (#15140-122, ThermoFisher Scientific) until used in the experiment. Cells at passage numbers between 15 and 25 were seeded in 96-well plates at the concentration of 5000 cells/well in 200 μL of medium and incubated for 24 h at 37 °C with 5% CO2. […] Subsequently, plates were incubated at 37 °C, and absorbance was measured using a Spark microplate reader after 1 h for HepG2 and 3 h for SH-SY5Y. Final cell viability was calculated relative to control wells (100% viability) and wells with 10 μM doxorubicin (0% viability). […]"}, "SH-SY5Y cells": {"system": "SH-SY5Y cells", "assay": "MTS cytotoxicity assay, SH-SY5Y", "type": "cell-based, human", "conditions": "72 h", "procedure": "as §2, §3"}, "mice [2]": {"system": "mice", "assay": "Spontaneous locomotor activity", "type": "in vivo", "conditions": "30 and 60 mg/kg i.p., 60 min before the test, one-way ANOVA", "procedure": "Spontaneous locomotor activity is a meaningful parameter helping to understand the physical and mental status of laboratory animals, providing insights into general activity levels, arousal and potential sedative or stimulant effects of administered substances. We measured the distance traveled by the mice during the 20 min observation period.\n(§4) The investigated compound (SERAAK1) in all tests was administered intraperitoneally (i.p.), spread in a drop of Tween 80, diluted by an aqueous solution of 0.5% methylcellulose (tylose) and injected 60 min before the tests in a volume of 10 mL/kg. Initial doses of the compound were selected based on available literature and our earlier studies. Control groups received tylose injections of the same volume and via the same route of administration.\n(§5) All experiments were conducted on a 6-week-old naïve male Swiss mice weighing 24–30 g in the Experimental Medicine Center, Medical University of Lublin, Poland. […]\n(§6) The automatic device—actimeter Opto-Varimex-4 Auto-Track (Columbus Instruments, Columbus, OH, USA)—was used to measure the locomotor activity of experimental animals. The mice were individually placed in cages for 25 min: the first 5 min for acclimatization and then the next 20 min for observation while the distance (in centimeters) traveled during this time was measured. […]"}, "mice [3]": {"system": "mice", "assay": "Chimney test (motor coordination)", "type": "in vivo", "conditions": "30 mg/kg and 60 mg/kg i.p., 60 min after administration", "procedure": "(§7) This conclusion was supported by results from two widely used behavioral tests: the chimney test (Figure 10) and the rotarod test (Figure 11), conducted 60 min after the substance administration. In the chimney test, we measured the time it took the mice to exit the chimney, and in the second test, the time the animals stayed on the rod rotating at a constant speed of 18 rpm.\nas §4\n(§8) All experiments were conducted on a 6-week-old naïve male Swiss mice weighing 24–30 g in the Experimental Medicine Center, Medical University of Lublin, Poland. The animals were housed (four/five per cage) under standard laboratory conditions (room temperature of 22 ± 1 °C and a relative humidity of 50–60% during a 12/12 h light-dark cycle, lights on at 8:00). […]\n(§9) The effects of SERAAK1 were also measured in the rotarod and chimney tests. In the first test, the ability of mice to balance on a rotating rod (18 rpm, constantly) was assessed for 1 min. […]"}, "mice [4]": {"system": "mice", "assay": "Rotarod test (motor coordination)", "type": "in vivo", "conditions": "30 mg/kg and 60 mg/kg i.p., 60 min after administration", "procedure": "as §7, §4, §8, §9"}, "mice [5]": {"system": "mice", "assay": "Elevated plus maze test (EPM)", "type": "in vivo", "conditions": "30 mg/kg i.p.", "procedure": "The effect of SERAAK1 on anxiety-like behavior in mice was assessed using the elevated plus maze test (EPM). In this test we measured three parameters: time spent in the open arms of the maze, the number of entries into the open arms—expressed as a percentage of the time spent/entries in both types of maze arms and the total number of entries into the open and closed arms of the maze, which is an additional measure of the animals’ locomotor activity. The anxiolytic activity of mice after SERAAK1 administration was expressed as the percentage of time spent in the open arms of the maze and the number of entries into these arms. Statistical analysis with a t-test indicated a significant influence of acute administration of SERAAK1 (30 mg/kg) on anxiety responses.\nas §4\nas §8, with “8:00). The animals had free access to laboratory food—pellet diet (LSM, Agropol Motycz, Marynin, Poland) and tap water—except for the short time when they were removed from the cages for testing.” for “8:00).”\nAnxiety behaviors were measured using the EPM test according to the Lister method. […] The time spent in the EPM open arms, the number of entries into the open arms, and the total number of entries into both types of arms were measured."}, "mice [6]": {"system": "mice", "assay": "Forced swim test (FST)", "type": "in vivo", "conditions": "30 mg/kg i.p., 60 min before the test, vs control, p < 0.01", "procedure": "The forced swim test (FST) is commonly used in rodent laboratory models to assess the efficacy of a potential antidepressant drug in alleviating or preventing depressive-like states. In the FST, we estimated the immobility time of animals, illustrating it […]. In this study, a t-test was used to assess the statistically significant effect of acute administration of SERAAK1 (30 mg/kg) on mice behavior in the FST.\nas §4, §5\nThe study was carried out using the test proposed by R. Porsolt. […] The immobility time, considered as the state in which the mouse performs only those movements necessary to keep its head above the water, is measured between 2 and 6 min."}, "mice [7]": {"system": "mice", "assay": "Amphetamine-induced hyperactivity", "type": "in vivo", "procedure": "In this test, we measured the distance traveled by the mice during the 20 min observation period. […] Pretreatment concerns the administration of amphetamine, and treatment concerns the tested compound.\nas §4, §8, §6"}, "5-HT2A receptor [8]": {"target": "5-HT2A receptor", "set-up": "method as in PMID 38619283", "conditions": "radioligand binding; cited from earlier work"}, "5-HT1A receptor": {"target": "5-HT1A receptor", "set-up": "method as in PMID 38619283", "conditions": "radioligand binding; cited from earlier work"}, "D2 receptor": {"target": "D2 receptor", "set-up": "method as in PMID 38619283", "conditions": "radioligand binding; cited from earlier work"}, "5-HT2A receptor [9]": {"target": "5-HT2A receptor", "set-up": "method as in PMID 38619283", "conditions": "functional studies; read-out: Kb, antagonist of the 5-HT2A receptor; cited from earlier work"}, "[10]": {"conditions": "30 µM (highest concentration tested)"}, "[11]": {"conditions": "60 min before the test, vs control, p < 0.001"}}, "data": [{"smiles": "CCN1CCCC1CNC(=O)c1cc(S(N)(=O)=O)ccc1OC", "note": "(stereo not shown) [Sulpiride, reference compound]", "values": [{"measurement": "Papp at 5 h, 100 μM", "setting": "[1]", "value": "0.011 ± 0.002", "unit": "×10⁻⁶ cm/s"}]}, {"smiles": "OC(COC(c1ccccc1)c1ccccc1)CN1CCN(C(c2ccccc2)c2ccccc2)CC1", "note": "(stereo not shown) [SERAAK1, 1-(benzhydryloxy)-3-(4-benzhydrylpiperazin-1-yl)propan-2-ol]", "values": [{"measurement": "CYP3A4 induction, dose-response", "setting": "CYP3A4; concentrations > 100 nM, up to 10 µM", "value": "induce CYP3A4 in a dose-dependent manner"}, {"measurement": "inhibition at 10 µM", "setting": "CYP3A4; human, CYP3A4 P450 Glo kit (Promega), 10 µM, a negative value indicates a stimulating effect, read-out: CYP3A4 Activity Inhibition, Evaluated in the Concentration of 10 µM [% of Inhibition ± SEM]", "value": "-352 ± 9", "unit": "%"}, {"measurement": "CYP2D6 inhibition concentration range (IC50)", "setting": "CYP2D6", "value": "submicromolar"}, {"measurement": "inhibition at 10 µM", "setting": "CYP2D6", "value": "95 ± 1", "unit": "%"}, {"measurement": "Toxic influence on HepG2 cells at lower concentrations", "setting": "HepG2 cells; 0.3 µM, 3 µM", "value": "no toxic influence"}, {"measurement": "% inhibition of cell proliferation (cytotoxic effect), HepG2", "setting": "HepG2 cells; [10]", "value": "84 ± 3", "unit": "%"}, {"measurement": "Toxic influence on SH-SY5Y cells at lower concentrations", "setting": "SH-SY5Y cells; 0.3 µM, 3 µM", "value": "no toxic influence"}, {"measurement": "% inhibition of cell proliferation, SH-SY5Y", "setting": "SH-SY5Y cells; [10]", "value": "50 ± 5", "unit": "%"}, {"measurement": "Passive permeation through the lipid bilayer", "setting": "[1]", "value": "did not permeate passively"}, {"measurement": "Papp at 5 h, 100 μM", "setting": "[1]", "value": "< 0.01", "unit": "×10⁻⁶ cm/s"}, {"measurement": "Spontaneous locomotor activity (distance traveled in 20 min)", "setting": "mice [2]", "value": "did not show any significant changes"}, {"measurement": "Motor coordination, chimney test (time to exit the chimney)", "setting": "mice [3]", "value": "did not reveal any statistically significant effects"}, {"measurement": "Motor coordination, rotarod test (time on the rod, 18 rpm)", "setting": "mice [4]", "value": "did not reveal any statistically significant effects"}, {"measurement": "Total arm entries, overall mobility (EPM)", "setting": "mice [5]", "value": "did not change the overall mobility"}, {"measurement": "Increase in percentage of open arm entries (EPM)", "setting": "mice [5]; [11]", "value": 19.34, "unit": "%"}, {"measurement": "Increase in percentage of time spent on the open arms (EPM)", "setting": "mice [5]; [11]", "value": 12.9, "unit": "%"}, {"measurement": "Reduction in immobility time (FST)", "setting": "mice [6]", "value": 29.2, "unit": "%"}, {"measurement": "Decrease of amphetamine-induced hyperactivity (distance traveled in 20 min)", "setting": "mice [7]; 30 mg/kg with amphetamine (5 mg/kg), vs amphetamine-treated group, p < 0.05", "value": 22.15, "unit": "%"}, {"measurement": "Ki", "setting": "5-HT2A receptor [8]", "value": "826 ± 51", "unit": "nM"}, {"measurement": "Ki", "setting": "5-HT1A receptor", "value": "1420 ± 108", "unit": "nM"}, {"measurement": "Ki", "setting": "D2 receptor", "value": "1290 ± 323", "unit": "nM"}, {"measurement": "Kb", "setting": "5-HT2A receptor [9]", "value": 462, "unit": "nM"}]}, {"smiles": "CC(N)Cc1ccccc1", "note": "(stereo not shown) [amphetamine, reference compound]", "values": [{"measurement": "Locomotor activity (distance traveled) vs saline-treated group", "setting": "mice [7]; amphetamine alone, p < 0.001", "value": "increased the locomotor activity"}]}, {"smiles": "C=C[C@H]1C[N@@]2CC[C@H]1C[C@@H]2[C@@H](O)c1ccnc2ccc(OC)cc12", "note": "[Quinidine, reference compound]", "values": [{"measurement": "inhibition at 10 µM", "setting": "CYP2D6; CYP2D6 P450 Glo kit (Promega)", "value": "100 ± 1", "unit": "%"}]}]}
